From patent publication US10245328B2, “Gadolinium complex comprising DO3A-tranexamic acid conjugate” (KYUNGPOOK NATIONAL UNIVERSITY INDUSTRY-ACADEMIC COOPERATION …, priority 2014, dated 2019)

Columns and labels:
[1] = Stability against hydrolysis in H2O (HPLC, 197 nm); format: physicochemical; settings: for HPLC peak 6.54 min, 2d / HPLC peak 7.79 min / HPLC peak 8.86 min / HPLC peak 33.15 min / HPLC peak 40.33 min / HPLC peak 40.81 min / HPLC peak 43.77 min / HPLC peak 44.51 min / HPLC peak 46.56 min: 2d in water; for HPLC peak 2.38 min, 2b (trans) / HPLC peak 2.88 min, 2b (cis) / HPLC peak 3.16 min / HPLC peak 3.84 min / HPLC peak 7.66 min / HPLC peak 24.42 min / HPLC peak 28.12 min / HPLC peak 29.92 min / HPLC peak 34.46 min, Acid / HPLC peak 49.58 min: 2b in water
Experimental: The contrast agents of the present series 100 mg are dissolved in distilled water 10 mL and is maintained as they are for 72 hours at 50° C. Using HPLC, O.D. (Optical Density) values are read at 197 nm and the stability of the agents is determined. The substances at each retention time are examined using LC Mass Spectroscopy for accurate identification of decomposed products.

ICR mice = experiment: In vivo MR experiment, T1-weighted images after tail vein injection; settings: for signal enhancement / signal strength at the liver / liver-specificity / class of contrast agent: 0.1 mmol Gd/kg i.v.; for signal enhancement / signal strength at the liver: 1.5 T, initial 1 hour; for liver-specificity / class of contrast agent: in vivo MR images of mice
Experimental: The in vivo experiment is executed with compliance to a regulation of Animal Research Committee of KNU. 29-31 g weight 6-weeks male ICR mice are used. […] The measurement is carried out before and after the injection of the complexes 2a-e through the tail vein. […] After the mice wake from the anesthesia after each measurement, the mice were placed in a cage capable of free access to feed and food. For this measurement, the animals are held at about 37° C. using a warm water blanket. MR images are taken using a 1.5 T MR unit (GE Healthcare, Milwaukee, Wis.) with a manual RF coil for a small animal. The coil may be of a receiver type having a 50 mm inner diameter. […] MR images are collected for 24 h after the injection. Anatomical positions having an improved contrast are set for a liver, a bile duct, and a kidney on (post contrast) MR images. For quantitative measurements, a signal intensity in a region of interest (ROI) is measured using Advantage Window software (GE medical, U.S.). The CNR is calculated using a following equation (1): […] SNR is a […].

[2] = Relaxation rate measurement (R1, R2) in PBS and in PBS solution of HSA; format: physicochemical; settings: 293K; for R1 / R2: PBS pH 7.4, 64 MHz (1.5 T); for R1 in 0.67 mM HSA / R2 in 0.67 mM HSA: PBS solution of 0.67 mM HSA, 64 MHz
Experimental: T1 measurement is carried out using an inversion recovery method at 1.5 T (64 MHz) in a variable inverse time (TI). MR images are obtained for 35 different TI values in a range of 50 to 1750 ms. A T1 relaxation time is obtained from a nonlinear least-squares fit of a signal strength measured at each TI value. For a T2 CPMG (Carr-Purcell-Meiboon-Gill) pulse sequence measurement, the measurement is adapted to a multi spin-echo measurement. 34 images are obtained at 34 different echo time (TE) values in a range of 10 to 1900 ms. The T2 relaxation time is obtained from a nonlinear least-squares fit of mean pixel values for multi spin-echo measurement at each echo time. Next, a relaxation rate (R1 and R2) is calculated as an inverse of a relaxation time per mM. The determined relaxation time (T1 and T2) and relaxation rate (R1 and R2) are subjected to an image processing to get a relaxation time map and relaxation rate respectively.
For comparison between the complexes 2a-e, there is no noticeable difference in R1's. The measurement is carried out for two different media, that is, PBS (pH=7.4) and PBS solution of HAS in order to indicate which blood-pool effect is expressed by the complexes 2a-e.

[3] = Isothermal titration calorimeter (ITC), binding of Gd^3+ to ligand; settings: 25° C., pH = 4.5, read-out: Kd (dissociation constant)
Experimental: In order to quantify binding isotherms of paramagnetic metal ions Gd^3+ with a ligand solution, an ITC test is executed at a VP-ITC isothermal titration microcalorimeter (Microcal, USA). Data collection, analysis and plotting are executed with help of software package Origin, version 8.0 from Microcal. A sample cell has a 1.43 mL volume. The cell is filled with a water-soluble buffer solution of the above compound 1a-e ligand (0.2 mM). A water-soluble buffer solution of Gd^3+ (1.0 mM) is input into a 300 μL continuous agitated (300 rpm) syringe and 10 μL aliquots thereof is injected into the cell. At a 3-mins interval, the cell is delivered over 20 s. Data points are collected on a 2 s basis. The measurement is executed at 25° C. All titrations are executed three times to secure data consistency and solution stability. These titration isotherms are integrated to find out an enthalpy change at each injection. In order to fit well with two mathematically different sets of site models, the titration isotherms are analyzed. Via a calorie measurement, parameters including a binding constant (Ka), a change in enthalpy (ΔH), a stoichiometry of binding (N) are calculated. Next, a free energy (ΔG) and an entropy change (ΔS) are calculated using a following complexation equation: Mn++nL↔MLn:ΔG=−RT·InKa=ΔH-TΔS,
where, R indicates a universal gas constant; T is Kelvin temperature.

## NCCNC(=O)C1CCC(CNC(=O)CN2CCN(CC(=O)[O-])CCN(CC(=O)[O-])CCN(CC(=O)[O-])CC2)CC1.[Gd+3] (stereo not drawn) [2c]
[1]; 2c in water, 50° C./3 day
  HPLC peak 2.58%: 0.27%
  HPLC peak 7.61%: 0.14%
  HPLC peak 19.86%: 2.30%
  HPLC peak 2.31 min, 2b: 0.11%
  HPLC peak 9.10 min, 2c (trans): 93.11%
  HPLC peak 10.60 min, 2c (cis): 1.19%
  HPLC peak 40.68 min, 1c: 0.002%
  HPLC peak 45.53 min: 0.18%
  HPLC peak 49.81 min: 0.11%
[1]; 2c in water, initial
  HPLC peak 2.58%: 0.27%
  HPLC peak 7.61%: 0.14%
  HPLC peak 2.31 min, 2b: 0.06%
  HPLC peak 9.10 min, 2c (trans): 91.05%
  HPLC peak 10.60 min, 2c (cis): 1.35%
  HPLC peak 40.68 min, 1c: 1.65%
  HPLC peak 45.53 min: 0.16%
  HPLC peak 49.81 min: 0.09%
ICR mice; ICR mice
  signal enhancement / signal strength at the liver: strong signal enhancement
ICR mice
  liver-specificity / class of contrast agent: strong specificity enhancement
[2]
  R1: 3.68 ± 0.13 mM⁻¹ s⁻¹
  R2: 3.62 ± 0.26 mM⁻¹ s⁻¹
  R1 in 0.67 mM HSA: 3.74 ± 0.07 mM⁻¹ s⁻¹
  R2 in 0.67 mM HSA: 4.10 ± 0.07 mM⁻¹ s⁻¹

## NC1CCC(NC(=O)CN2CCN(CC(=O)[O-])CCN(CC(=O)[O-])CCN(CC(=O)[O-])CC2)CC1.[Gd+3] (stereo not drawn) [2d]
[1]; 50° C./3 day
  HPLC peak 6.54 min, 2d: 90.10%
  HPLC peak 7.79 min: 0.36%
  HPLC peak 8.86 min: 0.30%
  HPLC peak 33.15 min: 1.12%
  HPLC peak 40.33 min: 0.007%
  HPLC peak 40.81 min: 0.14%
  HPLC peak 43.77 min: 0.25%
  HPLC peak 44.51 min: 0.22%
  HPLC peak 46.56 min: 0.18%
[1]; initial
  HPLC peak 6.54 min, 2d: 89.67%
  HPLC peak 7.79 min: 0.30%
  HPLC peak 8.86 min: 0.30%
  HPLC peak 33.15 min: 1.20%
  HPLC peak 40.33 min: 0.16%
  HPLC peak 40.81 min: 0.14%
  HPLC peak 43.77 min: 0.27%
  HPLC peak 44.51 min: 0.23%
  HPLC peak 46.56 min: 0.19%
ICR mice
  liver-specificity / class of contrast agent: ECF contrast agent
ICR mice; initially after 0.1 mmol Gd/kg i.v., ICR mice
  signal enhancement at the kidney and abdominal aorta: strong signal enhancement
[2]
  R1: 3.94 ± 0.13 mM⁻¹ s⁻¹
  R2: 3.68 ± 0.29 mM⁻¹ s⁻¹
  R1 in 0.67 mM HSA: 3.91 ± 0.09 mM⁻¹ s⁻¹
  R2 in 0.67 mM HSA: 4.07 ± 0.09 mM⁻¹ s⁻¹

## NCCNC(=O)C1CCC(CNC(=O)CN2CCN(CC(=O)O)CCN(CC(=O)O)CCN(CC(=O)O)CC2)CC1 (stereo not drawn) [1c]
[3]
  Kd: 16.8 µM

## O=C([O-])CN1CCN(CC(=O)[O-])CCN(CC(=O)NCC2CCC(C(=O)O)CC2)CCN(CC(=O)[O-])CC1.[Gd+3] (stereo not drawn) [2b]
[1]; 50° C./3 day
  HPLC peak 2.38 min, 2b (trans): 93.4%
  HPLC peak 2.88 min, 2b (cis): 2.87%
  HPLC peak 3.16 min: 0.33%
  HPLC peak 3.84 min: 0.38%
  HPLC peak 7.66 min: 0.06%
  HPLC peak 24.42 min: 0.19%
  HPLC peak 28.12 min: 0.64%
  HPLC peak 29.92 min: 0.10%
  HPLC peak 34.46 min, Acid: 0.03%
  HPLC peak 49.58 min: 0.21%
[1]; initial
  HPLC peak 2.38 min, 2b (trans): 92.80%
  HPLC peak 2.88 min, 2b (cis): 3.35%
  HPLC peak 3.16 min: 0.30%
  HPLC peak 3.84 min: 0.35%
  HPLC peak 7.66 min: 0.12%
  HPLC peak 24.42 min: 0.06%
  HPLC peak 28.12 min: 0.56%
  HPLC peak 29.92 min: 0.09%
  HPLC peak 34.46 min, Acid: 0.34%
  HPLC peak 49.58 min: 0.19%
ICR mice; ICR mice
  signal enhancement / signal strength at the liver: strong signal enhancement
ICR mice
  liver-specificity / class of contrast agent: strong specificity enhancement
[2]
  R1: 3.87 ± 0.11 mM⁻¹ s⁻¹
  R2: 3.98 ± 0.26 mM⁻¹ s⁻¹
  R1 in 0.67 mM HSA: 3.98 ± 0.14 mM⁻¹ s⁻¹
  R2 in 0.67 mM HSA: 5.43 ± 0.28 mM⁻¹ s⁻¹

## CNC[C@H](O)[C@@H](O)[C@H](O)[C@H](O)CO.O=C([O-])CN1CCN(CC(=O)[O-])CCN(CC(=O)O)CCN(CC(=O)[O-])CC1.[Gd+3] [Dotarem, Gd-DOTA, reference compound]
[2]
  R1: 3.59 ± 0.17 mM⁻¹ s⁻¹
  R2: 3.87 ± 0.20 mM⁻¹ s⁻¹
  R1 in 0.67 mM HSA: 4.05 ± 0.13 mM⁻¹ s⁻¹
  R2 in 0.67 mM HSA: 4.30 ± 0.25 mM⁻¹ s⁻¹
